The results in this text go back to patent publication US20120077737A1, “HEPATITIS C INHIBITOR COMPOUNDS” (priority 2009, published 2012).

SMILES strings stand for the structures.

The subject of assay [1] is HCV genotype 1a subgenomic replicon with NS3 resistance mutation R155K. In words: HCV replicon RNA replication assay, R155K 1a. The following applies: Hepatitis C virus, Huh-7, 72 h, read-out: R155K 1a Ec50 (nM). The assay is classed as cell-based, HCV genotype 1a (strain H77), Huh-7 cells.
In assay [2] the test system is HCV genotype 1b subgenomic replicon with NS3 resistance mutation D168V. Briefly: HCV replicon RNA replication assay, D168V 1b. As to conditions: Hepatitis C virus, Huh-7, 72 h, read-out: D168V 1b Ec50 (nM). The class given is cell-based, HCV genotype 1b (Con-1), Huh-7 cells.
Assay [3] relates to HCV genotype 1a subgenomic replicon with NS3 resistance mutation D168V. In words: HCV replicon RNA replication assay, D168V 1a. The class given is cell-based, HCV genotype 1a (strain H77), Huh-7 cells. The following applies: Hepatitis C virus, Huh-7, 72 h, read-out: D168V 1a Ec50 (nM).
Assay [4] has as its system HCVPV1a subgenomic replicon (wild type 1a). Briefly: HCV replicon RNA replication assay, wild type 1a. The class given is cell-based, HCV genotype 1a (strain H77), Huh-7 cells. The following applies: Hepatitis C virus; Table 1; luciferase replicon, Huh-7, 72 h; read-out: WT 1a Ec50.
Assay [5] relates to HCVPV1b subgenomic replicon (wild type 1b). Briefly: HCV replicon RNA replication assay, wild type 1b. The class given is cell-based, HCV genotype 1b (Con-1), Huh-7 cells. As to conditions: Hepatitis C virus; Table 1; luciferase replicon, Huh-7, 72 h; read-out: WT 1b Ec50.

Regarding `COc1ccc2c(O[C@@H]3C[C@H]4C(=O)N[C@]5(C(=O)NS(=O)(=O)C6(C)CC6)C[C@H]5/C=C\CCCCC[C@H](NC(=O)c5ccc(C(C)(C)O)s5)C(=O)N4C3)cc(OC(C)C)nc2c1C` [Compound 1020, (2R,6S,12Z,13aS,14aR,16aS)-6-({[5-(2-hydroxypropan-2-yl)thiophen-2-yl]carbonyl}amino)-2-{[7-methoxy-8-methyl-2-(propan-2-yloxy)quinolin-4-yl]oxy}-N-[(1-methylcyclopropyl)sulfonyl]-5,16-dioxo-1,2,3,6,7,8,9,10,11,13a,14,15,16,16a-tetradecahydrocyclopropa[e]pyrrolo[1,2-a][1,4]diazacyclopentadecine-14a(5H)-carboxamide], the EC50 in assay [1] turned out to be 2.4 nM; in assay [2], 0.39 nM; in assay [3], 3.7 nM; in assay [4], 0.86 nM; in assay [5] it was 0.66 nM.

On to `COc1c(F)ccc2c(O[C@@H]3C[C@H]4C(=O)N[C@]5(C(=O)NS(=O)(=O)C6(C)CC6)C[C@H]5/C=C\CCCCC[C@H](NC(=O)c5ccn(C(C)C)n5)C(=O)N4C3)cc(OC(C)C)nc12` [Compound 1023, (2R,6S,12Z,13aS,14aR,16aS)-2-{[7-fluoro-8-methoxy-2-(propan-2-yloxy)quinolin-4-yl]oxy}-N-[(1-methylcyclopropyl)sulfonyl]-5,16-dioxo-6-({[1-(propan-2-yl)-1H-pyrazol-3-yl]carbonyl}amino)-1,2,3,6,7,8,9,10,11,13a,14,15,16,16a-tetradecahydrocyclopropa[e]pyrrolo[1,2-a][1,4]diazacyclopentadecine-14a(5H)-carboxamide], for which the 50% effective concentration (EC50) in assay [1] came out at 3.1 nM; in assay [2], 0.52 nM; in assay [3] it was 0.83 nM; in assay [4], 0.37 nM; in assay [5], 0.4 nM.

`COc1ccc2c(O[C@@H]3C[C@H]4C(=O)N[C@]5(C(=O)NS(=O)(=O)C6(C)CC6)C[C@H]5/C=C\CCCCC[C@H](NC(=O)c5cnn(C)n5)C(=O)N4C3)cc(OC(C)C)nc2c1C` [Compound 1006, (2R,6S,12Z,13aS,14aR,16aS)-2-{[7-methoxy-8-methyl-2-(propan-2-yloxy)quinolin-4-yl]oxy}-N-[(1-methylcyclopropyl)sulfonyl]-6-{[(2-methyl-2H-1,2,3-triazol-4-yl)carbonyl]amino}-5,16-dioxo-1,2,3,6,7,8,9,10,11,13a,14,15,16,16a-tetradecahydrocyclopropa[e]pyrrolo[1,2-a][1,4]diazacyclopentadecine-14a(5H)-carboxamide]: the EC50 amounted to 2.2 nM in assay [1]; 0.17 nM in assay [2]; 9.6 nM in assay [3]; 0.19 nM in assay [4]; 0.18 nM in assay [5].

As for `COc1c(F)ccc2c(O[C@@H]3C[C@H]4C(=O)N[C@]5(C(=O)NS(=O)(=O)C6(C)CC6)C[C@H]5/C=C\CCCCC[C@H](NC(=O)c5ccc(C)s5)C(=O)N4C3)cc(OC(C)C)nc12` [Compound 1028, (2R,6S,12Z,13aS,14aR,16aS)-2-{[7-fluoro-8-methoxy-2-(propan-2-yloxy)quinolin-4-yl]oxy}-N-[(1-methylcyclopropyl)sulfonyl]-6-{[(5-methylthiophen-2-yl)carbonyl]amino}-5,16-dioxo-1,2,3,6,7,8,9,10,11,13a,14,15,16,16a-tetradecahydrocyclopropa[e]pyrrolo[1,2-a][1,4]diazacyclopentadecine-14a(5H)-carboxamide], the EC50 stood at 6.5 nM in assay [1]; 0.52 nM in assay [2]; 5.5 nM in assay [3]; 1.1 nM in assay [4]; 0.69 nM in assay [5].

Consider `COc1ccc2c(O[C@@H]3C[C@H]4C(=O)N[C@]5(C(=O)NS(=O)(=O)C6(C)CC6)C[C@H]5/C=C\CCCCC[C@H](NC(=O)c5cnn(CC(F)F)n5)C(=O)N4C3)cc(OC(C)C)nc2c1C` [Compound 1010, (2R,6S,12Z,13aS,14aR,16aS)-6-({[2-(2,2-difluoroethyl)-2H-1,2,3-triazol-4-yl]carbonyl}amino)-2-{[7-methoxy-8-methyl-2-(propan-2-yloxy)quinolin-4-yl]oxy}-N-[(1-methylcyclopropyl)sulfonyl]-5,16-dioxo-1,2,3,6,7,8,9,10,11,13a,14,15,16,16a-tetradecahydrocyclopropa[e]pyrrolo[1,2-a][1,4]diazacyclopentadecine-14a(5H)-carboxamide], for which the EC50 in assay [1] was 4.6 nM; in assay [2], 0.26 nM; in assay [3] it was 5.6 nM; in assay [4], 0.3 nM; in assay [5] it was 0.37 nM.

On to `COc1ccc2c(O[C@@H]3C[C@H]4C(=O)N[C@]5(C(=O)NS(=O)(=O)C6(C)CC6)C[C@H]5/C=C\CCCCC[C@H](NC(=O)c5ccn(CC(F)F)n5)C(=O)N4C3)cc(OC(C)C)nc2c1C` [Compound 1001, (2R,6S,12Z,13aS,14aR,16aS)-6-({[1-(2,2-difluoroethyl)-1H-pyrazol-3-yl]carbonyl}amino)-2-{[7-methoxy-8-methyl-2-(propan-2-yloxy)quinolin-4-yl]oxy}-N-[(1-methylcyclopropyl)sulfonyl]-5,16-dioxo-1,2,3,6,7,8,9,10,11,13a,14,15,16,16a-tetradecahydrocyclopropa[e]pyrrolo[1,2-a][1,4]diazacyclopentadecine-14a(5H)-carboxamide], for which the EC50 in assay [1] was 0.96 nM; in assay [2], 0.1 nM; in assay [3], 0.78 nM; in assay [4] it was 0.22 nM; in assay [5] it was 0.17 nM.

Turning to `CNC(=O)Cn1ccc(C(=O)N[C@H]2CCCCC/C=C\[C@@H]3C[C@@]3(C(=O)NS(=O)(=O)C3CC3)NC(=O)[C@@H]3C[C@@H](Oc4cc(OC(C)C)nc5c(C)c(OC)ccc45)CN3C2=O)n1` [Compound 1018, (2R,6S,12Z,13aS,14aR,16aS)-N-(cyclopropylsulfonyl)-2-{[7-methoxy-8-methyl-2-(propan-2-yloxy)quinolin-4-yl]oxy}-6-[({1-[2-(methylamino)-2-oxoethyl]-1H-pyrazol-3-yl}carbonyl)amino]-5,16-dioxo-1,2,3,6,7,8,9,10,11,13a,14,15,16,16a-tetradecahydrocyclopropa[e]pyrrolo[1,2-a][1,4]diazacyclopentadecine-14a(5H)-carboxamide], the EC50 amounted to 4.2 nM in assay [1]; 2.4 nM in assay [2]; 9.8 nM in assay [3]; 2.7 nM in assay [4]; 3.3 nM in assay [5].

With `COc1c(F)ccc2c(O[C@@H]3C[C@H]4C(=O)N[C@]5(C(=O)NS(=O)(=O)C6(C)CC6)C[C@H]5/C=C\CCCCC[C@H](NC(=O)c5ccn(C)n5)C(=O)N4C3)cc(OC(C)C)nc12` [Compound 1013, (2R,6S,12Z,13aS,14aR,16aS)-2-{[7-fluoro-8-methoxy-2-(propan-2-yloxy)quinolin-4-yl]oxy}-N-[(1-methylcyclopropyl)sulfonyl]-6-{[(1-methyl-1H-pyrazol-3-yl)carbonyl]amino}-5,16-dioxo-1,2,3,6,7,8,9,10,11,13a,14,15,16,16a-tetradecahydrocyclopropa[e]pyrrolo[1,2-a][1,4]diazacyclopentadecine-14a(5H)-carboxamide], the EC50 worked out at 1.6 nM in assay [1]; 0.45 nM in assay [2]; 0.75 nM in assay [3]; 0.5 nM in assay [4]; 0.37 nM in assay [5].

`COc1ccc2c(O[C@@H]3C[C@H]4C(=O)N[C@]5(C(=O)NS(=O)(=O)C6CC6)C[C@H]5/C=C\CCCCC[C@H](NC(=O)c5ccn(CC(F)F)n5)C(=O)N4C3)cc(OC(C)C)nc2c1C` [Compound 1011, (2R,6S,12Z,13aS,14aR,16aS)-N-(cyclopropylsulfonyl)-6-({[1-(2,2-difluoroethyl)-1H-pyrazol-3-yl]carbonyl}amino)-2-{[7-methoxy-8-methyl-2-(propan-2-yloxy)quinolin-4-yl]oxy}-5,16-dioxo-1,2,3,6,7,8,9,10,11,13a,14,15,16,16a-tetradecahydrocyclopropa[e]pyrrolo[1,2-a][1,4]diazacyclopentadecine-14a(5H)-carboxamide]: the EC50 stood at 3.9 nM in assay [1]; 0.24 nM in assay [2]; 6.4 nM in assay [3]; 0.43 nM in assay [4]; 0.35 nM in assay [5].

As for `COc1ccc2c(O[C@@H]3C[C@H]4C(=O)N[C@]5(C(=O)NS(=O)(=O)C6CC6)C[C@H]5/C=C\CCCCC[C@H](NC(=O)c5ccc(C(C)(C)O)s5)C(=O)N4C3)cc(OC(C)C)nc2c1C` [Compound 1014, (2R,6S,12Z,13aS,14aR,16aS)-N-(cyclopropylsulfonyl)-6-({[5-(2-hydroxypropan-2-yl)thiophen-2-yl]carbonyl}amino)-2-{[7-methoxy-8-methyl-2-(propan-2-yloxy)quinolin-4-yl]oxy}-5,16-dioxo-1,2,3,6,7,8,9,10,11,13a,14,15,16,16a-tetradecahydrocyclopropa[e]pyrrolo[1,2-a][1,4]diazacyclopentadecine-14a(5H)-carboxamide], the EC50 was 8.5 nM in assay [1]; 0.82 nM in assay [2]; 6.3 nM in assay [3]; 1.2 nM in assay [4]; 1.2 nM in assay [5].
